Results published in article PMC8155856, “Synthesis and Characterization of Radiogallium-Labeled Cationic Amphiphilic Peptides as Tumor Imaging Agents” (Cancers, 2021).
Non-standard residues stand in square brackets, D forms with d. Residues, ends and D or L forms follow the SMILES beside them. *: point of attachment. FITC = O=C1OC2(c3ccc(O)cc3Oc3cc(O)ccc32)c2ccc(NC(=S)*)cc21; NOTA = O=C(O)CN1CCN(CC(=O)O)CCN(CC(=O)*)CC1; Ahx = NCCCCCC(=O)O

Assays:
[1] = test system: KB cells; test: Confocal fluorescence microscopic imaging of FITC-CAPs; format: cell-based; settings: 10 µM, 1 h, confocal laser scanning microscope
Procedure: (§1) KB and 3T3-L1 cells were cultured on 8-well chambered cover glasses (Iwaki, Tokyo, Japan) and incubated with FITC-CAPs (10 μM) for 1 h. The medium was removed and cells were washed twice with ice-cold PBS containing heparin (20 units/mL) and twice with ice-cold PBS. Subsequently, the cells were incubated with Hoechst 33342 (2.5 µg/mL) for 30 min and then washed twice with ice-cold PBS. Fluorescent images were captured using a confocal laser scanning microscope (LSM710, Carl Zeiss Inc., Jena, Germany) with excitation wavelengths of 405 nm (UV laser) for Hoechst 33342 and 488 nm (Ar laser) for FITC-CAPs.

[2] = test system: 3T3-L1 cells; test: as above; format: cell-based, mouse; settings: 10 µM, 1 h, confocal laser scanning microscope
Procedure: as §1

[3] = test system: KB cells; test: Cellular uptake of FITC-CAPs; format: cell-based; settings: 1 μM, 37 °C, 2 h post-incubation, heparin/PBS wash, lysate fluorescence; mean ± SEM, n = 7–13
Procedure: (§2) Epidermoid carcinoma KB cells were provided by DS Pharma Biomedical Co., Ltd. (Suita, Japan). Mouse fibroblast-like 3T3-L1 cells were obtained from the JCRB Cell Bank (Tokyo, Japan). KB cells were cultured in Eagle’s minimal essential medium supplemented with 10% fetal bovine serum. The 3T3-L1 cells were grown in Dulbecco’s modified Eagle’s medium supplemented with 10% bovine calf serum. All media were supplemented with 100 IU/mL penicillin and 100 μg/mL streptomycin. The cells were maintained in a humidified atmosphere containing 5% CO2 at 37 °C.
(§3) Each cell line was grown to confluence in a 12-well plate and washed with PBS. FITC-CAPs (1 μM) or ^67Ga-NOTA-CAPs (1.0 kBq) (Figure S2C) in a growing medium (0.6 mL) were added to each cell and incubated at 37 °C for each time point. After incubation, the cells were washed twice with 20 units of heparin/PBS (0.5 mL) and lysed using cell lysis buffer M from Fujifilm Wako (Osaka, Japan) at 37 °C for 20 min. The radioactivity and fluorescence of the lysates was measured using a gamma counter and fluorescence microplate reader, respectively, and the protein concentration was determined using a Bradford protein assay kit (Bio-Rad, Hercules, CA, USA). Data are expressed as percentage uptake per milligram of protein (% uptake/mg protein).

[4] = test system: 3T3-L1 cells; test: Cellular uptake of FITC-CAPs; format: cell-based, mouse; settings: 1 μM; for Difference in FITC-CAP uptake between KB and 3T3-L1 cells (specificity for cancer cells): 2 h, ANOVA with Tukey's test
Procedure: as §2, §3

[5] = In vitro stability in mouse plasma; settings: freshly prepared mouse plasma, 37 °C, 1 h, 10 μL tracer + 90 μL plasma, CH3CN precipitation, HPLC; mean (SEM) of three experiments
Procedure: The in vitro stability of ^67Ga-NOTA-CAPs in phosphate-buffered saline (PBS) and mouse plasma was analyzed according to a previously reported procedure [29, 30, 31]. In brief, each radiotracer (10 μL; 2.0–3.0 MBq) was added to PBS (90 μL) and incubated at 37 °C for 24 h or to freshly prepared mouse plasma (90 μL) and incubated at 37 °C for 1 h. […] The mouse plasma solution was added to ice-cold CH3CN (300 μL) and centrifuged at 9400 rcf for 4 min. The supernatant was filtered through a 0.22 μm membrane before HPLC analysis.

[6] = test system: KB tumor-bearing mice; test: Biodistribution in tumor-bearing mice; settings: 30 min after administration, KB xenograft, i.v.; mean (SD) of 4–6 mice
Procedure: (§4) BALB/c nu/nu mice (female; 4 weeks old) were supplied by Japan SLC Inc. (Shizuoka, Japan). The mice were maintained in a room at a constant ambient temperature and a 12/12 h light/dark cycle, and they were given free access to food and water. Mice were subcutaneously injected on their right shoulders with approximately 1.0 × 10^7 KB cells. The tumors were allowed to reach 300–500 mm^3 (1‒2 weeks after inoculation) before biodistribution studies were performed.
(§5) The ^67Ga-NOTA-CAPs (10 kBq/100 μL) were intravenously injected into the mice via the tail vein. The mice were sacrificed at the designated time intervals, and the organs were dissected. The tissues were then weighed, and radioactivity was measured by automated gamma counting (n = 5).

[7] = Biodistribution in tumor-bearing mice; settings: female, BALB/c nu/nu, mouse, iv, 10 kBq/100 uL, total radioactivity
Procedure: as §4, §5

[8] = test system: KB tumor-bearing mice; settings: mouse, in vivo
Procedure: as §4, §5

[9] = in vivo; settings: female, BALB/c nu/nu, mouse, iv, 10 kBq/100 uL, total radioactivity
Procedure: as §4, §5

In vitro stability in mouse plasma, percentage of remaining intact radiotracer [5] | Tumor uptake [6] | tissue uptake at 2 h ([7]; kidney) [%ID/g] | tissue to tissue ratio at 2 h ([7]; tumor/blood) | tissue to tissue ratio at 2 h ([7]; tumor/muscle) | tissue uptake at 2 h ([7]; liver) [%ID/g] | Compound | Cellular localization in KB cells [1] | Fluorescence signal in 3T3-L1 cells [2] | Cellular uptake of FITC-CAPs into KB cells [3] | Difference in FITC-CAP uptake between KB and 3T3-L1 cells (specificity for cancer cells) [4] | Cellular uptake of FITC-CAPs into 3T3-L1 cells ([4]; 37 °C, 2 h post-incubation, heparin/PBS wash, lysate fluorescence, mean ± SEM, n = 7–13) | Tumor-to-blood ratio compared among tracers [8] | Tumor-to-muscle ratio compared among tracers [8] | tissue uptake at 2 h [9] [%ID/g]
 |  |  |  |  |  | CC(C)[C@H](NC(=O)[C@H](Cc1c[nH]cn1)NC(=O)[C@@H](NC(=O)[C@H](Cc1c[nH]cn1)NC(=O)[C@@H](NC(=O)[C@H](Cc1c[nH]cn1)NC(=O)[C@@H](NC(=O)[C@@H]1CCCN1C(=O)[C@H]1CCCN1C(=O)[C@@H](NC(=O)[C@H](Cc1c[nH]cn1)NC(=O)[C@@H](NC(=O)[C@H](Cc1c[nH]cn1)NC(=O)[C@@H](NC(=O)[C@H](Cc1c[nH]cn1)NC(=O)[C@@H](NC(=O)[C@H](Cc1c[nH]cn1)NC(=O)CCCCCNC(=S)Nc1ccc2c(c1)C(=O)OC21c2ccc(O)cc2Oc2cc(O)ccc21)C(C)C)C(C)C)C(C)C)C(C)C)[C@@H](C)O)C(C)C)C(C)C)C(=O)N[C@@H](Cc1c[nH]cn1)C(N)=O [FITC-HV6] ({FITC-Ahx}-HVHVHVHV[dP]PTHVHVHVH-NH2) | also accumulated in the cytoplasm and nucleus | low fluorescence signals | 19.0% ± 0.94 % uptake/mg protein | high selectivity for cancer cells |  |  |  | 
 |  |  |  |  |  | CC(C)[C@H](NC(=O)[C@H](CCCNC(=N)N)NC(=O)[C@@H](NC(=O)[C@H](CCCNC(=N)N)NC(=O)[C@@H](NC(=O)[C@H](CCCNC(=N)N)NC(=O)[C@@H](NC(=O)[C@@H]1CCCN1C(=O)[C@H]1CCCN1C(=O)[C@@H](NC(=O)[C@H](CCCNC(=N)N)NC(=O)[C@@H](NC(=O)[C@H](CCCNC(=N)N)NC(=O)[C@@H](NC(=O)[C@H](CCCNC(=N)N)NC(=O)[C@@H](NC(=O)[C@H](CCCNC(=N)N)NC(=O)CCCCCNC(=S)Nc1ccc2c(c1)C(=O)OC21c2ccc(O)cc2Oc2cc(O)ccc21)C(C)C)C(C)C)C(C)C)C(C)C)[C@@H](C)O)C(C)C)C(C)C)C(=O)N[C@@H](CCCNC(=N)N)C(N)=O [FITC-RV6] ({FITC-Ahx}-RVRVRVRV[dP]PTRVRVRVR-NH2) | also accumulated in the cytoplasm and nucleus | strong fluorescence signals | 36.0% ± 2.63 % uptake/mg protein | low specificity for cancer cells | 26.6% ± 2.18 % uptake/mg protein |  |  | 
23.3 (0.75) % | 3.18% ± 0.36 % ID/g | 23 | 3.8 | 4.01 ± 2.05 |  | CC(C)[C@H](NC(=O)[C@H](Cc1c[nH]cn1)NC(=O)[C@@H](NC(=O)[C@H](Cc1c[nH]cn1)NC(=O)[C@@H](NC(=O)[C@H](Cc1c[nH]cn1)NC(=O)[C@@H](NC(=O)[C@@H]1CCCN1C(=O)[C@H]1CCCN1C(=O)[C@@H](NC(=O)[C@H](Cc1c[nH]cn1)NC(=O)[C@@H](NC(=O)[C@H](Cc1c[nH]cn1)NC(=O)[C@@H](NC(=O)[C@H](Cc1c[nH]cn1)NC(=O)[C@@H](NC(=O)[C@H](Cc1c[nH]cn1)NC(=O)CN1CCN(CC(=O)O)CCN(CC(=O)O)CC1)C(C)C)C(C)C)C(C)C)C(C)C)[C@@H](C)O)C(C)C)C(C)C)C(=O)N[C@@H](Cc1c[nH]cn1)C(N)=O [^67Ga-NOTA-HV6, metal not drawn] ({NOTA}-HVHVHVHV[dP]PTHVHVHVH-NH2) |  |  |  |  |  |  |  | 
27.4 (2.94) % | 4.76% ± 1.50 % ID/g | 26.9 | 8 | 3.35 ± 0.64 | 53.8 | CC(C)[C@H](NC(=O)[C@H](CCCNC(=N)N)NC(=O)[C@@H](NC(=O)[C@H](CCCNC(=N)N)NC(=O)[C@@H](NC(=O)[C@H](CCCNC(=N)N)NC(=O)[C@@H](NC(=O)[C@@H]1CCCN1C(=O)[C@H]1CCCN1C(=O)[C@@H](NC(=O)[C@H](CCCNC(=N)N)NC(=O)[C@@H](NC(=O)[C@H](CCCNC(=N)N)NC(=O)[C@@H](NC(=O)[C@H](CCCNC(=N)N)NC(=O)[C@@H](NC(=O)[C@H](CCCNC(=N)N)NC(=O)CN1CCN(CC(=O)O)CCN(CC(=O)O)CC1)C(C)C)C(C)C)C(C)C)C(C)C)[C@@H](C)O)C(C)C)C(C)C)C(=O)N[C@@H](CCCNC(=N)N)C(N)=O [^67Ga-NOTA-RV6, metal not drawn] ({NOTA}-RVRVRVRV[dP]PTRVRVRVR-NH2) |  |  |  |  |  |  |  | 

Compound | In vitro stability in mouse plasma, percentage of remaining intact radiotracer [5] | Tumor uptake [6] | tissue uptake at 2 h ([7]; kidney) [%ID/g] | tissue to tissue ratio at 2 h ([7]; tumor/blood) | tissue to tissue ratio at 2 h ([7]; tumor/muscle) | tissue uptake at 2 h ([7]; liver) [%ID/g] | Cellular localization in KB cells [1] | Fluorescence signal in 3T3-L1 cells [2] | Cellular uptake of FITC-CAPs into KB cells [3] | Difference in FITC-CAP uptake between KB and 3T3-L1 cells (specificity for cancer cells) [4] | Cellular uptake of FITC-CAPs into 3T3-L1 cells ([4]; 37 °C, 2 h post-incubation, heparin/PBS wash, lysate fluorescence, mean ± SEM, n = 7–13) | Tumor-to-blood ratio compared among tracers [8] | Tumor-to-muscle ratio compared among tracers [8] | tissue uptake at 2 h [9] [%ID/g]
CC(C)[C@H](NC(=O)[C@H](CCCCN)NC(=O)[C@@H](NC(=O)[C@H](CCCCN)NC(=O)[C@@H](NC(=O)[C@H](CCCCN)NC(=O)[C@@H](NC(=O)[C@@H]1CCCN1C(=O)[C@H]1CCCN1C(=O)[C@@H](NC(=O)[C@H](CCCCN)NC(=O)[C@@H](NC(=O)[C@H](CCCCN)NC(=O)[C@@H](NC(=O)[C@H](CCCCN)NC(=O)[C@@H](NC(=O)[C@H](CCCCN)NC(=O)CN1CCN(CC(=O)O)CCN(CC(=O)O)CC1)C(C)C)C(C)C)C(C)C)C(C)C)[C@@H](C)O)C(C)C)C(C)C)C(=O)N[C@@H](CCCCN)C(N)=O [^67Ga-NOTA-KV6, metal not drawn] ({NOTA}-KVKVKVKV[dP]PTKVKVKVK-NH2) |  | 4.46% ± 0.58 % ID/g | 118 | 7.7 | 5.05 ± 1.51 |  |  |  |  |  |  | significantly higher | significantly greater | 32.6
